From patent publication US11878973B2, “Bicyclic compounds and their uses” (NOVARTIS AG, priority 2021, dated 2024) come the findings set out here.

Where only a bound is given, the exact number is not on record here.

The term IC50 denotes the point on the concentration scale where inhibition reaches its midpoint.

The target of one assay is WRN helicase (Homo sapiens (Human), UniProt Q14191). Kind of assay: In vitro enzymatic activity assay on WRN helicase (DNA dependent ATPase assay, ADP-Glo). It counts as biochemical. Conditions: geometric means of at least 2 determinations; read-out: WRN ATPase Activity (IC50). The text has this:
An ATPase assay was set up to measure the DNA dependent ATP hydrolysis activity of WRN helicase. This assay was used also to assess the inhibition properties of compounds of the invention on DNA dependent WRN ATPase activity.
The core helicase motif of the WRN protein (aa N517-P1238) was produced for this assay (protein production as described above). […] The ADP-Glo assay kit (Promega, Madison, WI) allowing the quantification of ADP produced in ATP hydrolysis reactions was used for setting up this assay.
Time course experiments were first performed in order to determine the best enzymatic assay conditions (including buffer conditions, reaction time and concentrations of protein, ATP and DNA substrates). A typical reaction consists of 10 nM WRN protein, 0.2 nM FLAP26, and 300 micromolar ATP in the following assay buffer: 30 mM Tris pH7.5, 2 mM MgCl2, 0.02% BSA, 50 mM NaCl, 0.1% pluronic F127 prepared in DNAse free water. To evaluate the inhibition properties of compounds of the invention, serial dilutions were prepared in DMSO (10 half log dilutions from a 10 mM DMSO solution). […] The reaction was started by addition of 2.5 microliters of FLAP26 at 0.4 nM and incubated for 30 minutes at room temperature. The reaction was stopped with the addition of 5 microliters of the first ADP-Glo reagent and incubated for one hour to remove the excess amount of ATP. Afterwards, 10 microliters of ATP detection reagent was added and incubated for an additional hour before reading. Luminescence output was recorded using Tecan 1000 reader, with 5 minutes delay before reading. Each concentration of compound was tested in duplicates in the assay plate.
Following normalization of activity values for the wells to % inhibition (% inhibition=[(high control-sample)/(high control-low control)]×100), IC50 fitting was carried out from the duplicate determinations present on each plate according to [4]. Data analysis can also be carried out using commercially available software designed to derive IC50 values using 4-parameter fits (e.g. GraphPad Prism, XL fit). The reported IC50 values are the geometrical means of at least 2 independent replicates.

A further assay deals with SW48 cells. Kind of assay: Proliferation assay SW48 (CellTiterGlo, 96 hours). Conditions: Homo sapiens, SW48, read-out: Proliferation Assay SW48 (GI50). In general terms: Cellular ATP, detected with luciferase, serves as a proxy for viable cell number.
The subject of a further assay is DLD1-WRN-KO cells. Kind of assay: Proliferation assay DLD1-WRN-KO (CellTiterGlo, 96 hours; off-target effects). Conditions: Homo sapiens, read-out: Proliferation Assay DLD1-WRN-KO (GI50).

Chain of WRN helicase (Q14191 517-1238): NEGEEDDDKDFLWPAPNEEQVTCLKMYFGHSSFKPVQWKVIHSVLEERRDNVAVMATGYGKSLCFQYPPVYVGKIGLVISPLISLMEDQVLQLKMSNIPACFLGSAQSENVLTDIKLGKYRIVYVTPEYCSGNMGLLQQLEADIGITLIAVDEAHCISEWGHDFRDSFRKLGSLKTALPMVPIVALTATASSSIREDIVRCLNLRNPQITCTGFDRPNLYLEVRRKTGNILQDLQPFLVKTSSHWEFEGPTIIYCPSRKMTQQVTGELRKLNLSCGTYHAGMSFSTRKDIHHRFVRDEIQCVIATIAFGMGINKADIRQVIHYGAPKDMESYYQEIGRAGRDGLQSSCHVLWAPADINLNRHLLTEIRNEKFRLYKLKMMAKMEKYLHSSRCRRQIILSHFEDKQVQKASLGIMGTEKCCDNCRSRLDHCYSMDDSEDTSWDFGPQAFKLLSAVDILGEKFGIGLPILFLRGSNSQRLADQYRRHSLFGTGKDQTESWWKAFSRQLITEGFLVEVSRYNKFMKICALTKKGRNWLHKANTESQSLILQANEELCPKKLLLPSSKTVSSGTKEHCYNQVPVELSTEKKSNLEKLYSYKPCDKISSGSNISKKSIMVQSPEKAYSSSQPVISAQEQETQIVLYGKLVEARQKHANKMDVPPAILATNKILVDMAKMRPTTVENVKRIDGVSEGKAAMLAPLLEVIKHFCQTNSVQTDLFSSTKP
Method for DLD1-WRN-KO cells: (§1) The WRN-knockdown insensitive colon carcinoma cell line DLD-1 (RRID: CVCL_0248) was obtained from the Korean Cell Line Bank (KCLB), and used to generate a derivative in which the endogenous WRN gene copies were knocked out by CRISPR-mediated editing using standard CRISPR methods. The resulting cell line, DLD1-WRN—KO, was used to assess potential off-target compound effects.
(§2) All cells were maintained at 37° C. in a humidified 5% CO2 incubator.
(§3) For data analysis, the assay background signal that was determined in wells containing medium, but no cells, was subtracted from all other data points prior to further calculations. The extent of growth inhibition and potential cell kill was assessed by comparing the ATP levels (measured using CellTiterGlo, Promega) in compound-treated cells with those present at the time of compound addition. […] 100%, 0% and −100% signify absence of growth inhibition, growth stasis, and complete cell kill, respectively. Compound concentrations leading to half-maximal growth inhibition (G150) and residual cell viability at the highest tested compound concentration (Data (cmax), expressed in percent) were routinely calculated. Data analysis can also be carried out using commercially available software designed to derive IC50 values using 4-parameter fits (e.g. GraphPad Prism, XL fit). The reported GI50 values are the geometrical means of at least 2 independent replicates.
Method for SW48 cells: as §1, §2, §3

Turning to `CCc1c(N2CCN(C(=O)c3nccc(F)c3O)CC2)c(=O)n2nc(N3CCOCC3)nc2n1CC(=O)Nc1ccc(C(F)(F)F)cc1Cl` [Example 3, N-(2-chloro-4-(trifluoromethyl)phenyl)-2-(5-ethyl-6-(4-(4-fluoro-3-hydroxypicolinoyl)piperazin-1-yl)-2-morpholino-7-oxo-[1,2,4]triazolo[1,5-a]pyrimidin-4(7H)-yl)acetamide], the IC50 on WRN helicase stood at 70 nM. Besides, the GI50 with SW48 cells was 90 nM; in the assay on DLD1-WRN-KO cells, above 10000 nM.
Taken in the same sequence, the figures for `CCc1c(N2CCN(C(=O)c3ncccc3O)CC2)c(=O)n2nc(N3CCOCC3)nc2n1CC(=O)Nc1cc(Cl)c(C(F)(F)F)cc1C` [Example 4, N-(5-chloro-2-methyl-4-(trifluoromethyl)phenyl)-2-(5-ethyl-6-(4-(3-hydroxypicolinoyl)piperazin-1-yl)-2-morpholino-7-oxo-[1,2,4]triazolo[1,5-a]pyrimidin-4(7H)-yl)acetamide] were 40 nM, 60 nM and above 10000 nM.
Taken in the same sequence, the figures for `CCc1c(N2CCN(C(=O)c3ncccc3O)CC2)c(=O)n2nc(N3CCOCC3)nc2n1CC(=O)Nc1cc(F)c(C(F)(F)F)cc1C` [Example 5, 2-(5-ethyl-6-(4-(3-hydroxypicolinoyl)piperazin-1-yl)-2-morpholino-7-oxo-[1,2,4]triazolo[1,5-a]pyrimidin-4(7H)-yl)-N-(5-fluoro-2-methyl-4-(trifluoromethyl)phenyl)acetamide] were 90 nM, 120 nM and above 10000 nM.
Taken in the same sequence, the figures for `CCc1c(N2CCN(C(=O)c3nccc(Cl)c3O)CC2)c(=O)n2nc(N3CCOCC3)nc2n1CC(=O)Nc1cc(F)c(C(F)(F)F)cc1C` [Example 6, 2-(6-(4-(4-chloro-3-hydroxypicolinoyl)piperazin-1-yl)-5-ethyl-2-morpholino-7-oxo-[1,2,4]triazolo[1,5-a]pyrimidin-4(7H)-yl)-N-(5-fluoro-2-methyl-4-(trifluoromethyl)phenyl)acetamide] were 70 nM, 270 nM and above 10000 nM.
Consider `CCc1c(N2CCN(C(=O)c3ncccc3O)CC2)c(=O)n2nc(N3CCOCC3)nc2n1CC(=O)Nc1cc(F)c(C(F)(F)F)cc1Cl` [Example 7, N-(2-chloro-5-fluoro-4-(trifluoromethyl)phenyl)-2-(5-ethyl-6-(4-(3-hydroxypicolinoyl)piperazin-1-yl)-2-morpholino-7-oxo-[1,2,4]triazolo[1,5-a]pyrimidin-4(7H)-yl)acetamide], for which the IC50 on WRN helicase was 90 nM. Further, the GI50 in the assay with SW48 cells was 210 nM; with DLD1-WRN-KO cells, above 10000 nM.
Taken in the same sequence, the figures for `CCc1c(N2CCN(C(=O)c3ncccc3O)CC2)c(=O)n2nc(N3CCOCC3)nc2n1CC(=O)Nc1ccc(C(F)(F)F)cc1C` [Example 8, 2-(5-ethyl-6-(4-(3-hydroxypicolinoyl)piperazin-1-yl)-2-morpholino-7-oxo-[1,2,4]triazolo[1,5-a]pyrimidin-4(7H)-yl)-N-(2-methyl-4-(trifluoromethyl)phenyl)acetamide] were 80 nM, 210 nM and above 10000 nM.
Regarding `CCc1c(N2CCN(C(=O)c3nccc(Cl)c3O)CC2)c(=O)n2nc(N3CCOCC3)nc2n1CC(=O)Nc1ccc(C(F)(F)F)cc1C` [Example 9, 2-(6-(4-(4-chloro-3-hydroxypicolinoyl)piperazin-1-yl)-5-ethyl-2-morpholino-7-oxo-[1,2,4]triazolo[1,5-a]pyrimidin-4(7H)-yl)-N-(2-methyl-4-(trifluoromethyl)phenyl)acetamide], at WRN helicase, the IC50 stood at 60 nM. Also, the GI50 in the assay with SW48 cells was 350 nM; with DLD1-WRN-KO cells, above 10000 nM.
Taken in the same sequence, the figures for `CCc1c(N2CCN(C(=O)c3ncccc3O)CC2)c(=O)n2nc(N3CCOCC3)nc2n1CC(=O)Nc1ccc(C(F)(F)F)nc1Cl` [Example 10, N-(2-chloro-6-(trifluoromethyl)pyridin-3-yl)-2-(5-ethyl-6-(4-(3-hydroxypicolinoyl)piperazin-1-yl)-2-morpholino-7-oxo-[1,2,4]triazolo[1,5-a]pyrimidin-4(7H)-yl)acetamide] were 250 nM, 290 nM and 9900 nM.
Taken in the same sequence, the figures for `CCc1c(N2CCN(C(=O)c3ncccc3O)CC2)c(=O)n2nc(N3CCOCC3)nc2n1CC(=O)Nc1ccc(C(F)(F)F)cc1F` [Example 11, 2-(5-ethyl-6-(4-(3-hydroxypicolinoyl)piperazin-1-yl)-2-morpholino-7-oxo-[1,2,4]triazolo[1,5-a]pyrimidin-4(7H)-yl)-N-(2-fluoro-4-(trifluoromethyl)phenyl)acetamide] were 110 nM, 380 nM and above 10000 nM.
On to `CCc1c(N2CCN(C(=O)c3ncccc3O)CC2)c(=O)n2nc(N3CCOCC3)nc2n1CC(=O)Nc1cc(C(F)(F)F)c(Cl)cc1C` [Example 12, N-(4-chloro-2-methyl-5-(trifluoromethyl)phenyl)-2-(5-ethyl-6-(4-(3-hydroxypicolinoyl)piperazin-1-yl)-2-morpholino-7-oxo-[1,2,4]triazolo[1,5-a]pyrimidin-4(7H)-yl)acetamide], for which the IC50 at WRN helicase amounted to 130 nM. For the same compound, the GI50 is 550 nM in the assay with SW48 cells and above 10000 nM in the assay on DLD1-WRN-KO cells.
Turning to `CCc1c(N2CCN(C(=O)c3ncccc3O)CC2)c(=O)n2nc(N3CCC[C@@H](F)C3)nc2n1CC(=O)Nc1ccc(C(F)(F)F)cc1C` [Example 14a, (R)-2-(5-ethyl-2-(3-fluoropiperidin-1-yl)-6-(4-(3-hydroxypicolinoyl)piperazin-1-yl)-7-oxo-[1,2,4]triazolo[1,5-a]pyrimidin-4(7H)-yl)-N-(2-methyl-4-(trifluoromethyl)phenyl)acetamide], the concentration for half-maximal inhibition (IC50) on WRN helicase amounted to 80 nM. Further, the GI50 in the assay with SW48 cells was 370 nM; in the assay on DLD1-WRN-KO cells, above 10000 nM.
As for `CCc1c(N2CCN(C(=O)c3ncccc3O)CC2)c(=O)n2nc(N3CCC[C@H](F)C3)nc2n1CC(=O)Nc1ccc(C(F)(F)F)cc1C` [Example 14b, (S)-2-(5-ethyl-2-(3-fluoropiperidin-1-yl)-6-(4-(3-hydroxypicolinoyl)piperazin-1-yl)-7-oxo-[1,2,4]triazolo[1,5-a]pyrimidin-4(7H)-yl)-N-(2-methyl-4-(trifluoromethyl)phenyl)acetamide], the IC50 on WRN helicase worked out at 90 nM. For the same compound, the GI50 was 260 nM in the assay on SW48 cells and above 10000 nM with DLD1-WRN-KO cells.
Taken in the same sequence, the figures for `CCc1c(N2CCN(C(=O)c3ncccc3O)CC2)c(=O)n2nc(N3CCC[C@@H](F)C3)nc2n1CC(=O)Nc1ccc(C(F)(F)F)nc1Cl` [Example 16a, (R)—N-(2-chloro-6-(trifluoromethyl)pyridin-3-yl)-2-(5-ethyl-2-(3-fluoropiperidin-1-yl)-6-(4-(3-hydroxypicolinoyl)piperazin-1-yl)-7-oxo-[1,2,4]triazolo[1,5-a]pyrimidin-4(7H)-yl)acetamide] were 190 nM, 340 nM and above 10000 nM.
Turning to `CCc1c(N2CCN(C(=O)c3ncccc3O)CC2)c(=O)n2nc(N3CCC[C@H](F)C3)nc2n1CC(=O)Nc1ccc(C(F)(F)F)nc1Cl` [Example 16b, (S)—N-(2-chloro-6-(trifluoromethyl)pyridin-3-yl)-2-(5-ethyl-2-(3-fluoropiperidin-1-yl)-6-(4-(3-hydroxypicolinoyl)piperazin-1-yl)-7-oxo-[1,2,4]triazolo[1,5-a]pyrimidin-4(7H)-yl)acetamide], the IC50 at WRN helicase is 180 nM. For the same compound, the GI50 is 230 nM with SW48 cells and above 10000 nM in the assay on DLD1-WRN-KO cells.
Taken in the same sequence, the figures for `CCc1c(N2CCN(C(=O)c3ncccc3O)CC2)c(=O)n2nc(N3CCCC3)nc2n1CC(=O)Nc1ccc(C(F)(F)F)cc1C` [Example 17, 2-(5-ethyl-6-(4-(3-hydroxypicolinoyl)piperazin-1-yl)-7-oxo-2-(pyrrolidin-1-yl)-[1,2,4]triazolo[1,5-a]pyrimidin-4(7H)-yl)-N-(2-methyl-4-(trifluoromethyl)phenyl)acetamide] were 140 nM, 240 nM and above 10000 nM.
On to `CCc1c(N2CCN(C(=O)c3ncccc3O)CC2)c(=O)n2nc(N3CCCC3)nc2n1CC(=O)Nc1ccc(C(F)(F)F)nc1Cl` [Example 18, N-(2-chloro-6-(trifluoromethyl)pyridin-3-yl)-2-(5-ethyl-6-(4-(3-hydroxypicolinoyl)piperazin-1-yl)-7-oxo-2-(pyrrolidin-1-yl)-[1,2,4]triazolo[1,5-a]pyrimidin-4(7H)-yl)acetamide], for which the IC50 at WRN helicase is 180 nM. Besides, the GI50 in the assay with SW48 cells was 260 nM; in the assay with DLD1-WRN-KO cells, above 10000 nM.
